According to article PMC8219695 (Nature Communications, 2021):
Where “and” joins values, the source holds several entries; their conditions need not be identical. Equal values may be shown once.

Legend:
mMOR [1] = target: T1, mMOR (Mus musculus, UniProt P42866); test: [125I]BNtxA radioligand competition binding, mouse MOR; conditions: mean ± SEM, n = 3; [125I]BNtxA; read-out: Ki ± SEM mMOR
T1 construct: signal peptide (heterologous, not specified) (N); expressed in transfected cells; pcDNA3.1(+) construct made in house

mKOR = target: T2, mKOR (Mus musculus, UniProt P33534); test: [125I]BNtxA radioligand competition binding, mouse KOR; conditions: mean ± SEM, n = 3; [125I]BNtxA; read-out: Ki ± SEM mKOR
T2 construct: expressed in transfected cells; membranes

mDOR [2] = target: T3, mDOR (Mus musculus, UniProt P32300); test: [125I]BNtxA radioligand competition binding, mouse DOR; conditions: mean ± SEM, n = 3; [125I]BNtxA; read-out: Ki ± SEM mDOR
T3 construct: expressed in transfected cells

mMOR [3] = target: T1, mMOR; test: CAMYEL BRET cAMP agonist assay at mMOR; format: cell-based; conditions: mMOR; for cAMP %: single replicates, source data Fig 6b, listed as C11-Cl-7OH (23)
hMOR [4] = target: T4, hMOR (Homo sapiens, UniProt P35372); test: CAMYEL BRET cAMP agonist assay at hMOR; format: cell-based; conditions: for cAMP %: hMOR, single replicates, source data Fig 6c, listed as C11-Cl-7OH (23)
T4 construct: expressed in transfected cells; plasmid a gift from Dr. Nevin Lambert

mMOR [5] = target: T1, mMOR; test: CAMYEL BRET antagonism assay at mMOR (inhibition of DAMGO); format: cell-based; conditions: for Antagonist activity at mMOR, raw signal (single replicate values): source data of Fig 8a and Table 5, listed as C11-Cl-7OH (23);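 for Antagonist activity at mMOR, raw signal (single replicate values): BRET signal rises as cAMP falls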
hMOR [6] = target: T4, hMOR; test: cell-based
mDOR [7] = target: T3, mDOR; test: CAMYEL BRET cAMP agonist assay at mDOR; format: cell-based; conditions: Log[drug] (M) -5; single replicate values, Supplementary Figure 7B
[8] = Log[drug] (M) -13, cAMP inhibition as % of DAMGO

CC[C@@H]1CN2CC[C@@]3(O)C(=Nc4cc(Cl)cc(OC)c43)[C@@H]2C[C@@H]1/C(=C\OC)C(=O)OC [11-Cl-7OH (23), 11-Cl-7OH]
Ki (mMOR [1]): 0.0271 ± 0.0011 µM | Ki (mKOR): 0.0307 ± 0.0114 µM | Ki (mDOR [2]): 0.0472 ± 0.0024 µM | cAMP % (mMOR [3]; Log[drug] (M) -5): 6.435% and 6.384% and 16.5545% and 12.4027% and 11.5958% and 9.171% and 11.6377% and 17.8045% and 15.1324% | cAMP % (mMOR [3]; Log[drug] (M) -6): 18.6614% and 4.689% and 11.9914% and 8.341% and 7.121% and 7.194% and 11.7839% and 2.54% and 3.967% | cAMP % (mMOR [3]; Log[drug] (M) -7): 11.7629% and -2.4507% and 10.3244% and 12.5872% and 11.439% and 4.6796% and 1.65% and 1.082% and 0.9258% | cAMP % (mMOR [3]; Log[drug] (M) -8): -5.129% and 6.21% and -1.081% and 7.275% and 2.298% and 9.574% and 9.25% and -4.751% and 0.6222% | cAMP % (mMOR [3]; Log[drug] (M) -9): 2.051% and -8.733% and 10.4525% and -1.843% and 3.825% and 12.7464% and 9.611% and 1.736% and 14.7967% | cAMP % (mMOR [3]; Log[drug] (M) -10): -1.957% and 12.894% and -4.791% and 0.07219% and 0.3304% and -0.4025% and -1.324% and -2.101% and 5.511% | cAMP % (mMOR [3]; Log[drug] (M) -11): 22.2971% and -9.038% and -0.05376% and 20.8701% and 7.205% and 16.4135% and 3.836% and -1.905% and 3.566% | cAMP % (mMOR [3]; [8]): -0.5682% and 13.1006% and 15.0829% and 7.325% and 4.046% and 5.291% and 0.9156% and 1.033% and -1.949% | Emax (mMOR [3]; maximal inhibitory effect on cAMP levels relative to DAMGO): 13% | EC50 (mMOR [3]; n = 3, read-out: EC50): 0.841 µM | EC50 (hMOR [4]): 0.717 µM | Emax (hMOR [4]): 23% | cAMP % (hMOR [4]; Log[drug] (M) -5): 24.2611% and 22.8658% and 18.7916% and 30.0534% and 27.3903% and 24.7857% and 23.2679% and 13.839% and 17.3142% | cAMP % (hMOR [4]; Log[drug] (M) -6): 9.687% and 7.44% and 12.4984% and 21.3658% and 16.0104% and 20.3589% and 22.2511% and 5.161% and 10.3498% | cAMP % (hMOR [4]; Log[drug] (M) -7): 10.7608% and 2.692% and 16.2864% and 16.6401% and 9.757% and 17.1458% and 11.7292% and -1.4445% and 4.302% | cAMP % (hMOR [4]; Log[drug] (M) -8): -0.5618% and -5.878% and 6.44% and 1.224% and 16.3686% and 4.4% and 2.431% and 4.114% and 14.2353% | cAMP % (hMOR [4]; Log[drug] (M) -9): 10.2691% and 5.0211% and 7.383% and 19.7872% and -6.277% and -5.837% and 8.258% and 7.437% and 22.4848% | cAMP % (hMOR [4]; Log[drug] (M) -10): 8.636% and -0.2251% and 3.667% and 1.365% and 3.739% and -5.1037% and -3.2997% and -3.028% and 15.0493% | cAMP % (hMOR [4]; Log[drug] (M) -11): 5.568% and -0.09872% and -1.208% and 11.7024% and 0.1582% and 4.468% and 2.344% and 1.001% and -3.345% | cAMP % (hMOR [4]; [8]): 15.4388% and 3.989% and -0.7984% and 3.857% and -0.6743% and 5.111% and -4.4777% and 4.879% and 4.064% | IC50 (mMOR [5]): 0.32 µM | Antagonist activity at mMOR, raw signal (single replicate values) (mMOR [5]; Log[drug] (M) -5): 0.05136 and 0.05514 and 0.02734 and 0.03399 and 0.05638 and 0.03174 and 0.0604 and 0.04123 and 0.04243 | Antagonist activity at mMOR, raw signal (single replicate values) (mMOR [5]; Log[drug] (M) -6): 0.06527 and 0.08059 and 0.08038 and 0.07596 and 0.06694 and 0.07308 and 0.08894 and 0.05009 and 0.07552 | Antagonist activity at mMOR, raw signal (single replicate values) (mMOR [5]; Log[drug] (M) -7): 0.171 and 0.1656 and 0.1405 and 0.1722 and 0.164 and 0.1548 and 0.1502 and 0.1538 and 0.167 | Antagonist activity at mMOR, raw signal (single replicate values) (mMOR [5]; Log[drug] (M) -8): 0.2056 and 0.1941 and 0.1944 and 0.1853 and 0.1938 and 0.208 and 0.1628 and 0.1712 and 0.1714 | Antagonist activity at mMOR, raw signal (single replicate values) (mMOR [5]; Log[drug] (M) -9): 0.1978 and 0.1907 and 0.2036 and 0.185 and 0.2114 and 0.2034 and 0.1755 and 0.1681 and 0.1723 | Antagonist activity at mMOR, raw signal (single replicate values) (mMOR [5]; Log[drug] (M) -10): 0.2063 and 0.2294 and 0.2076 and 0.2027 and 0.2013 and 0.2029 and 0.1793 and 0.1909 and 0.175 | Antagonist activity at mMOR, raw signal (single replicate values) (mMOR [5]; Log[drug] (M) -11): 0.1963 and 0.2104 and 0.2086 and 0.1881 and 0.2054 and 0.206 and 0.1763 and 0.1632 and 0.1788 | IC50 (hMOR [6]): 0.92 µM | Agonist activity of 7OH analogs at mDOR (mDOR [7]): 26.1167 and 29.2367 and 36.3699 and 32.2405 and 24.7678 and 31.8502 and 20.8066 and 14.4196
